The first experiment addresses Complex I. Kind of experiment: Assay A: Determination of Complex I mediated ROS-inhibition (CI). The format is biochemical. The note with it: read-out: CI IC50; ROS generation by Complex I purified from bovine heart, Amplex Red/horse radish peroxidase readout, 8 point concentration-response.
One may read the IC50 as the concentration at which inhibition is half-maximal. Consider `O=C1/C(=C2/COCCN2)c2cc(NC3CCOCC3F)ccc2N1C1CCOCC1` (stereo not drawn) [Compound 80], for which the half-maximal inhibitory concentration (IC50) is 0.084 µM.
Same read-out and setting: the result for `CC(C)N1C(=O)C(=C2CCOCC2)c2cc(NC3CCOC3)ccc21` (stereo not drawn) [Compound 160] reads 0.829 µM.
The same measure, in the same setting: then `CCC(CC)Nc1ccc2c(c1)/C(=C1\COCCN1)C(=O)N2C1COC1` [Compound 136], with 0.213 µM; and `CC(C)N1C(=O)/C(=C2/COCCN2)c2cc(NC3CCCC3)ccc21` [Compound 94], with 0.558 µM; and `CN1C(=O)/C(=C2/CCNCCN2)c2cc(N3CCCC3)ccc21` [Compound 40], with 0.166 µM.
Same read-out and setting: then `O=C1/C(=C2/COCCN2)c2cc(NC3CCC(F)(F)CC3)ccc2N1C1CCOCC1` [Compound 78], with 0.089 µM; and `CC(C)Nc1ccc2c(c1)/C(=C1\CCCN1C)C(=O)N2C(C)C` [Compound 115], with 0.08 µM; and `CC1CCCC1Nc1ccc2c(c1)/C(=C1\COCCN1)C(=O)N2C(C)C` (stereo not drawn) [Compound 124], with 0.259 µM.
With `CC(Nc1ccc2c(c1)/C(=C1\COCCN1)C(=O)N2C(C)C)c1ccnn1C` (stereo not drawn) [Compound 17], the half-inhibitory concentration (IC50) worked out at 0.022 µM.
With `CC(C)Nc1ccc2c(c1)/C(=C1\CN(C(C)C)CCN1)C(=O)N2C1CCOCC1` [Compound 46], the half-maximal inhibitory concentration (IC50) was 0.086 µM.
On to `O=C1C(=C2CCOCC2)c2cc(N3CCCC3)ccc2N1C1CCOCC1` [Compound 112], for which the concentration for half-maximal inhibition (IC50) stood at 0.352 µM.
As to `CC(C)C(C)Nc1ccc2c(c1)/C(=C1\COCCN1)C(=O)N2C1COC1` (stereo not drawn) [Compound 66], the half-inhibitory concentration (IC50) worked out at 0.169 µM.
As for `O=C1/C(=C2/COCCN2)c2cc(NCC3CC3)ccc2N1C1CCOCC1` [Compound 103], the IC50 is 0.076 µM.
The same measure, in the same setting: the result for `COCC(C)Nc1ccc2c(c1)/C(=C1\COCCN1)C(=O)N2C1COC1` (stereo not drawn) [Compound 137] reads 0.138 µM.
As for `CC(C)Nc1ccc2c(c1)/C(=C1\CC3(CN1)COC3)C(=O)N2C1CCOCC1` [Compound 165], the IC50 is 0.181 µM.
As to `CC(Nc1ccc2c(c1)/C(=C1\COCCN1)C(=O)N2C1CCOCC1)c1cnccn1` (stereo not drawn) [Compound 146], the IC50 is 0.066 µM.
Still for that read-out and setting: then `CC1OCCC1Nc1ccc2c(c1)/C(=C1\COCCN1)C(=O)N2C(C)C` (stereo not drawn) [Compound 125], with 0.05 µM.
Still for that read-out and setting: then `CCC(CC)Nc1ccc2c(c1)/C(=C1\COCCN1)C(=O)N2C1CCOCC1` [Compound 76], with 0.043 µM; and `CC(=O)N1CCC2(CC1)CN/C(=C1\C(=O)N(C(C)C)c3ccc(N4CCCC4)cc31)CO2` [Compound 53], with 0.233 µM; and `O=C1/C(=C2/COCCN2)c2cc(NC3CCCC3)ccc2N1C1CCOCC1` [Compound 60], with 0.245 µM.
Still for that read-out and setting: the result for `CC(C)N1C(=O)/C(=C2/COCCN2)c2cc(NCC3CC3)ccc21` [Compound 58] reads 0.1 µM; that for `CC1CCC(C)N1c1ccc2c(c1)/C(=C1\COCCCN1)C(=O)N2C1CCOCC1` (stereo not drawn) [Compound 142], 0.116 µM; that for `CC(C)N1C(=O)/C(=C2/CCOCCN2)c2cc(N3C(C)CCC3C)ccc21` (stereo not drawn) [Compound 128], 0.044 µM.
For `CC(Nc1ccc2c(c1)/C(=C1\COCCN1)C(=O)N2C1CCOCC1)c1ccnn1C` (stereo not drawn) [Compound 79], the IC50 was 0.02 µM.
Same read-out and setting: the result for `CC(C)Nc1ccc2c(c1)/C(=C1\COCCN1)C(=O)N2C1CCOC1` (stereo not drawn) [Compound 163] reads 0.172 µM; that for `CC(C)N1C(=O)/C(=C2/COCCN2)c2cc(NC(C)C(C)(C)C)ccc21` (stereo not drawn) [Compound 55], 0.307 µM; that for `O=C(CCO)Nc1ccc2c(c1)/C(=C1\COCCN1)C(=O)N2C1CCOC1` (stereo not drawn) [Compound 169], 0.944 µM.
The same measure, in the same setting: the result for `COCC(C)N1C(=O)/C(=C2/COCCN2)c2cc(N3CCC(O)C3)ccc21` (stereo not drawn) [Compound 119] reads 0.422 µM; that for `CCC(CC)Nc1ccc2c(c1)/C(=C1\COCCN1)C(=O)N2C(C)C` [Compound 171], 0.206 µM.
On the same count and under the same terms, the result for `CC(=O)N1CCC(Nc2ccc3c(c2)/C(=C2\COCCN2)C(=O)N3C(C)C)CC1` [Compound 172] reads 0.078 µM; that for `CC(Nc1ccc2c(c1)/C(=C1\COCCN1)C(=O)N2C1CCOCC1)c1cncnc1` (stereo not drawn) [Compound 147], 0.069 µM; that for `CC(=O)N1CCN/C(=C2\C(=O)N(C3CCOCC3)c3ccc(NC(C)C)cc32)C1` [Compound 111], 0.119 µM.
For `CC(C)Nc1ccc2c(c1)/C(=C1\CN(C3CCOCC3)CCN1)C(=O)N2C1CCOCC1` [Compound 24], the 50% inhibitory concentration (IC50) stood at 0.048 µM.
Still for that read-out and setting: then `CC(C)Nc1ccc2c(c1)/C(=C1\COCCN1)C(=O)N2C(C)C` [Compound 44], with 0.044 µM.
As to `O=C1/C(=C2/COCCN2)c2cc(NC3CCC3)ccc2N1C1CCOC1` (stereo not drawn) [Compound 14], the IC50 stood at 0.101 µM.
Regarding `O=C1/C(=C2/COCCN2)c2cc(N3CCOCC3)ccc2N1C1CCOCC1` [Compound 4], the IC50 was 0.242 µM.
Same read-out and setting: the result for `CC(C)Nc1ccc2c(c1)/C(=C1\COCCN1)C(=O)N2C1COCCOC1` [Compound 26] reads 0.02 µM; that for `CC(C)Nc1ccc2c(c1)/C(=C1\COCCN1)C(=O)N2C1COC1` [Compound 135], 0.082 µM.
`CN1CCC(Nc2ccc3c(c2)/C(=C2\COCCN2)C(=O)N3C2CCOCC2)CC1` [Compound 150]: the half-inhibitory concentration (IC50) was 0.048 µM.
The same measure, in the same setting: the result for `CC(C)Nc1ccc2c(c1)C(=C1CCOCC1)C(=O)N2C1CCOCC1` [Compound 6] reads 0.533 µM.
On to `CC(C)N1C(=O)/C(=C2/COCCN2)c2cc(NCC3CCOC3)ccc21` (stereo not drawn) [Compound 39], for which the IC50 was found to be 0.067 µM.
Regarding `CCC(C)Nc1ccc2c(c1)/C(=C1\COCCN1)C(=O)N2C1CCOCC1` (stereo not drawn) [Compound 59], the concentration for half-maximal inhibition (IC50) stood at 0.122 µM.
`COC1COCCC1Nc1ccc2c(c1)/C(=C1\COCCN1)C(=O)N2C1CCOCC1` (stereo not drawn) [Compound 149]: the IC50 was found to be 0.161 µM.
For the molecule `CC(C)N1CCC2(CC1)CN/C(=C1\C(=O)N(C(C)C)c3ccc(N4C(C)CCC4C)cc31)CO2` (stereo not drawn) [Compound 139], the half-maximal inhibitory concentration (IC50) stood at 0.308 µM.
For the molecule `CC(Nc1ccc2c(c1)/C(=C1\COCCN1)C(=O)N2C1CCOCC1)C1CC1` (stereo not drawn) [Compound 20], the concentration for half-maximal inhibition (IC50) was 0.073 µM.
In the case of `CC(C)N1CCN/C(=C2\C(=O)N(C)c3ccc(N4CCCC4)cc32)CC1` [Compound 110], the IC50 came to 0.264 µM.
The same measure, in the same setting: then `CC(C)Nc1ccc2c(c1)C(=C1CCOCC1)C(=O)N2C(C)C` [Compound 47], with 0.153 µM.
With `CN1CCN/C(=C2\C(=O)N(C)c3ccc(N4CCCC4)cc32)CC1` [Compound 64], the IC50 was 0.286 µM.
Consider `Nc1ccc2c(c1)/C(=C1\CCCN1)C(=O)N2C1CCOCC1` [Compound 83], for which the IC50 came to 0.011 µM.

For the next experiment, the system named is HT-22 cells.
Test: not given
The format is cell-based, mice. The following applies: Mus musculus, HT-22, 16 h, read-out: HT22 IC50.
`CCOC(=O)N1CCC(N2C(=O)/C(=C3/COCCN3)c3cc(N4C(C)CCC4C)ccc32)CC1` (stereo not drawn) [Compound 11]: the IC50 is 0.038 µM.
Still for that read-out and setting: then `CN1CCC(N2C(=O)/C(=C3/CCCN3)c3cc(N(C)C)ccc32)CC1` [Compound 109], with 0.16 µM; and `CC(C)Nc1ccc2c(c1)/C(=C1\COCCN1)C(=O)N2C1CCN(C(C)C)CC1` [Compound 92], with 0.044 µM.
The same measure, in the same setting: then `Nc1ccc2c(c1)/C(=C1/NCCN(C(=O)OCc3ccccc3)C1O)C(=O)N2C1CCNCC1` (stereo not drawn) [Compound 87], with 1 µM.

Still in this experiment, the particulars now being: Mus musculus; protection of HT-22 cells from glutamate (5 mM) induced cell death, 16 hours, Alamar Blue viability; read-out: HT22 IC50.
For `CC(C)Nc1ccc2c(c1)/C(=C1\CN(C3CCOCC3)CCN1)C(=O)N2C1CCOCC1` [Compound 24], the concentration for half-maximal inhibition (IC50) is 0.123 µM.

These data come from patent US11795147B2, “Modulators of complex I” (Boehringer Ingelheim International GmbH, priority 2019, dated 2023).
